Source: a melting point compilation (Tetko et al.)

Row | Structure (SMILES) | melting point
1 | O=C(O)c1ccc(=O)n(Cc2ccccc2)n1 | 192 to 195 °C
2 | O=C(O)C1CC1c1cccc(F)c1 (stereo not drawn) | 78 to 80 °C
3 | CN(C)c1ccc(-n2ccnc2S)cc1 | 249 to 251 °C
4 | O=C(Nc1ccccc1)C1CCc2ccccc2N1 (stereo not drawn) | 124 to 126 °C
5 | Cc1cc(Cl)c2cc(F)c(F)c(F)c2n1 | 73 to 75 °C
6 | COC(=O)c1cccc(S(=O)(=O)N2CCCCC2)c1 | 83 to 85 °C
7 | O=C(CC(=O)NCc1ccccc1)NCc1ccccc1 | 119 to 121 °C
8 | CCN(CC)Cc1ccc(O)c2ncccc12 | 60 to 62 °C
9 | O=C(O)c1cc[nH]c(=O)c1 | 299 to 301 °C
10 | Cc1cc(NC(=O)CCl)on1 | 106 to 108 °C
11 | Cc1nnc(Cl)c2ccccc12 | 123 to 125 °C
12 | CCc1ccccc1Nc1nnc(S)s1 | 159 to 161 °C
13 | CNc1ncc2c(n1)-c1ccccc1SC2 | 123 to 125 °C
14 | O=C(O)c1ncn(-c2ccccc2)n1 | 179 to 181 °C
15 | COc1ccccc1NC(=O)CC(=O)Nc1ccccc1OC | 154 to 156 °C
16 | O=C(O)c1ccc(-c2ccc([N+](=O)[O-])cc2Cl)o1 | 251 to 253 °C
17 | Cc1ccc(-c2ccc(C(=O)O)c(F)c2)cc1 | 247 to 249 °C
18 | Nc1nc2c(cc1C(=O)O)CCCC2 | 285 to 287 °C
19 | O=C(O)CNC(=O)c1cccc(Br)c1 | 148 to 150 °C
20 | O=C(O)CCc1cc2ccccc2[nH]c1=O | 227 to 229 °C
21 | CCc1nc2ccccc2n1C1CCNCC1 | 99 to 101 °C
22 | CCOC(=O)COc1ccc(S(C)(=O)=O)cc1[N+](=O)[O-] | 131 to 133 °C
23 | C=CC(=O)NCc1ccc(F)cc1 | 118 to 120 °C
24 | COc1ncc(Br)cc1CC#N | 39 to 41 °C
25 | Cc1ccc(N)c(C)c1S(=O)(=O)NC1CC1 | 96 to 98 °C
26 | CC1(C)NC(=O)N(CCC(=O)NN)C1=O | 176 to 178 °C

Row | Structure (SMILES) | melting point
27 | Nc1ccc(CC(F)(F)F)cc1 | 46 to 48 °C
28 | COc1cc(NS(=O)(=O)c2ccc(N)cc2OC)cc(OC)c1 | 177 to 179 °C
29 | N#CCc1c[nH]c2ccc(Cl)cc12 | 104 to 106 °C
30 | Cc1cccc(NC(=O)[C@@H]2CCCN2)n1 | 62 to 64 °C
31 | O=C(O)CSc1cc(Cl)ccc1Cl | 129 to 131 °C
32 | Cn1cnnc1Sc1ccc(N)cc1Cl | 168 to 170 °C
33 | O=C(O)C1CCc2[nH]ncc2C1 (stereo not drawn) | 229 to 231 °C
34 | CNc1ccc(C=O)cc1[N+](=O)[O-] | 118 to 120 °C
35 | C=CCOc1ccc(O)cc1 | 36 to 38 °C
36 | Cn1c(=O)oc2c(C(=O)O)cccc21 | 309 to 311 °C
37 | COCCn1c(C)cc(C=O)c1C | 44 to 46 °C
38 | Cc1cc(=O)oc2cc(OCCBr)ccc12 | 102 to 104 °C
39 | Cn1ncc(C(=O)O)c1Br | 202 to 204 °C
40 | CN1CCN(S(N)(=O)=O)C(c2ccccc2)C1 (stereo not drawn) | 109 to 111 °C
41 | CCCCn1c(=O)[nH]c(=O)c2c1nc(CCl)n2CC | 172 to 174 °C
42 | Nc1cc(-c2ccccc2)nn1CCO | 142 to 144 °C
43 | O=C1C(=O)N(CO)c2ccccc21 | 157 to 159 °C
44 | CC(C)(C)c1ccc(-c2nnc(N)[nH]2)cc1 | 213 to 215 °C
45 | Cc1sc(N)nc1-c1ccc(Cl)cc1 | 146 to 148 °C
46 | CN(C)C(=O)c1ccc(Cl)nc1 | 67 to 69 °C
47 | O=C1CC2(CCCCC2)Oc2cc(O)ccc21 | 169 to 171 °C
48 | N#Cc1cc(C(=O)O)c(N)[nH]c1=O | 250 to 252 °C
49 | CC(=O)c1ccc(CC(=O)O)cc1 | 109 to 111 °C
50 | Brc1cccc(-n2cnnn2)c1 | 90 to 92 °C
51 | O=C(O)c1csc(-c2ccc(Cl)c(Cl)c2)n1 | 212 to 214 °C
52 | O=C(O)C1CCCN(c2ccc(Cl)nn2)C1 (stereo not drawn) | 179 to 181 °C

Row | Structure (SMILES) | melting point
53 | CC(C)Cn1[nH]c(CC(=O)O)cc1=O | 164 to 166 °C
54 | NCC(=O)Nc1cccc2ncccc12 | 128 to 130 °C
55 | Cc1nnc(-c2cccc(N)c2)n1C | 189 to 191 °C
56 | C=CCN(c1ccccc1Cl)S(=O)(=O)c1cccc(C(=O)O)c1 | 103 to 105 °C
57 | CCC(C)n1c(S)nnc1-c1ccccc1 (stereo not drawn) | 166 to 168 °C
58 | CC1CN(c2ccc(N)cc2F)CC(C)O1 (stereo not drawn) | 116 to 118 °C
59 | CCOc1ccc(S(N)(=O)=O)cc1OCC | 152 to 154 °C
60 | N#Cc1ccc(NC(=O)CCCl)cc1Cl | 156 to 158 °C
61 | O=C1NCCCN2CCCC12 (stereo not drawn) | 120 to 122 °C
62 | COc1ccc(Br)c(-c2nnc(CCC(=O)O)o2)c1 | 116 to 118 °C
63 | N#Cc1ccc(Oc2ccc(Cl)cc2)c(F)c1 | 67 to 69 °C
64 | COC(=O)c1ccc(S(=O)(=O)Cl)cn1 | 119 to 121 °C
65 | CC(O)c1cc(Cl)ccc1Cl (stereo not drawn) | 60 to 64 °C
66 | CC(C)CNC(=O)CC#N | 57 to 59 °C
67 | Nc1ccc(C(=O)N2CCCc3ccccc32)cc1 | 210 to 212 °C
68 | Cc1csc(CC(N)=S)n1 | 126 to 128 °C
69 | NC(=S)CF | 53 to 55 °C
70 | COC(=O)c1ccc(S(N)(=O)=O)s1 | 150 to 152 °C
71 | CCOC(=O)c1c(N=C=S)sc(C)c1C | 67 to 69 °C
72 | COc1ccc(C(=O)CBr)cc1OC | 83 to 85 °C
73 | CC(C)(C)OC(=O)N1CCC(OC(=O)c2cccc(N)c2)CC1 | 124 to 126 °C
74 | c1ccc(COc2cccc3[nH]ncc23)cc1 | 125 to 127 °C
75 | O=C1OC(C(O)CO)C(O)=C1O (stereo not drawn) | 192 to 196 °C
76 | O=C(O)c1ccc(S(=O)(=O)C2CCCC2)cc1 | 199 to 201 °C
77 | COc1ccc(-n2c(C)c(C)c3c(N)ncnc32)cc1 | 231 to 233 °C
78 | Cc1nnc(Br)s1 | 106 to 108 °C

Row | Structure (SMILES) | melting point
79 | Cc1cccc(Cc2cnc(N)s2)c1 | 100 to 102 °C
80 | NNC(=O)c1cn(-c2ccccc2)nc1-c1ccccc1 | 161 to 163 °C
81 | COc1cc(OC)cc(-c2nnc(S)n2N)c1 | 178 to 180 °C
82 | O=C(O)C1CCCN(S(=O)(=O)Cc2ccccc2)C1 (stereo not drawn) | 128 to 130 °C
83 | O=C1NC(=O)C2(CCS(=O)(=O)CC2)N1 | 327 to 329 °C
84 | NCc1nc(-c2ccc(Cl)cc2)cs1 | 105 to 107 °C
85 | NC(=O)c1ncc(Br)cc1Br | 187 to 189 °C
86 | CC(C)(C)OC(=O)NC1CC1(F)F (stereo not drawn) | 73 to 75 °C
87 | O=C(O)c1csc(S(=O)(=O)N2CCc3ccccc3C2)c1 | 232 to 234 °C
88 | c1ccc2[nH]c(C3CC3)nc2c1 | 232 to 234 °C
89 | CCc1cc(=O)[nH]c(-c2cccnc2)n1 | 151 to 153 °C
90 | CC(C)(CC(=O)O)CC(=O)N1CCOCC1 | 80 to 82 °C
91 | O=C(O)c1cnc(-c2ccc(C(F)(F)F)cc2)s1 | 160 to 162 °C
92 | N#Cc1ccc(F)cc1N=C=O | 36 to 38 °C
93 | Oc1nnnn1-c1ccc(Cl)cc1 | 141 to 143 °C
94 | Nc1cccc(C=CC(=O)O)c1 | 173 to 175 °C
95 | COC(=O)c1ccc(CNC(=O)CCl)cc1 | 108 to 110 °C
96 | O=C(O)c1sccc1-c1ccccc1 | 206 to 208 °C
97 | COc1cc(C(=O)O)ccc1OCc1c(C)noc1C | 216 to 218 °C
98 | O=C(NCCO)c1ccc([N+](=O)[O-])cc1Cl | 173 to 175 °C
99 | CCOC(=O)c1ncccc1N | 127 to 129 °C
100 | COc1cccc(NCCC#N)c1 | 81 to 83 °C
101 | O=Cc1cnn(-c2ccccc2)n1 | 66 to 68 °C
102 | Cc1cc2ncc(S(C)(=O)=O)c(N)n2n1 | 208 to 210 °C
103 | CCCCn1c(=O)[nH]c(=O)c2c1nc(CCl)n2C | 222 to 224 °C
